Key:
[1] = system: HeLa (human epithelial cervical cancer) cell line; assay: MTT cytotoxicity assay; format: cell-based; conditions: after 48 h of treatment, mean ± S.D
Excerpt: (§1) HeLa (human epithelial cervical cancer, ATCC CCL-2), HepG2 (human epithelial liver cancer, ATCC HB-8065) and Vero (monkey epithelial kidney […], ATCC CCL-81) cell lines were used to examine the selected virtual hit compounds’ anti-cancer activity. All cell lines were generously provided by the late Prof. Dr. M.H. Qazi, University of Lahore, Lahore, Pakistan. The test compounds were purchased via MolPort and cisplatin from Pharmedic (Pvt) Ltd., Lahore, Pakistan. Cell culture media, fetal calf serum (FCS), MTT (3-[[…]]-2,5-diphenyltetrazolium bromide), DMSO, antibiotic/antimycotic and Supplementary Materials were purchased from Thermo Fisher Scientific, Inc, (Waltham, MA, USA).
(§2) Cells were harvested at 80% confluence by treating the medium-free monolayer with trypsin-EDTA. Cell counts were performed with a hemocytometer, and cell viability was determined with trypan blue. The cell suspension was adjusted to a final concentration of […] in DMEM (Dulbecco’s modified Eagle medium) with 10% FCS. Cells were dispensed to tissue culture grade 96-well plates, with each microwell receiving 100 µL, i.e., 7000 cells per microwell. The plate was incubated at 37 °C for 12 h in 5% CO2 incubator. Stock solutions (10 mM) of the test compounds and positive control were prepared in DMSO. Test concentrations were prepared by diluting the stocks with the growth media. Test compound solutions were diluted from 100 µL to a final well volume of 200 µL. MTT reagent was prepared in phosphate-buffered saline (PBS) in a concentration of 5 mg/mL. After 48 h, 25 µL of MTT reagent was added to each microwell, followed by incubation for 5 h. MTT is reduced by metabolically active cells to insoluble purple formazan crystals by mitochondrial enzymes. The reduction of MTT is primarily due to glycolytic activity within the cell, and is dependent upon the presence of NADH and NADPH. The entire contents of each microwell were carefully pipetted out without disturbing the cells on the well floor. In order to solubilize the formazan crystals, 100 µL of DMSO was dispensed to each well. The absorbance was measured with the help of a Bio Rad PR 4100 microplate reader at a wavelength of 570 nm. Serial dilutions of cisplatin were used as a positive control, while the negative controls contained only the reagent, but not any drug. Percentage viability was calculated and dose–response curves were plotted using the percentage viability against the drug/test compound concentration (µM). Results represent mean ±SD of six readings: three determinations of two independent experiments.
(§3) These four compounds were subsequently tested for their cytotoxic effect on different cell lines. Cell viability assays on cancer cell lines HeLa and HepG2 and non-cancerous Vero cell line were performed using the lead compounds (Z21, Z88, F34, AF3) with doses ranging from 50 to 400 µM. Cisplatin was used as a positive control at dose levels of 1 µM, 10 µM, and 20 µM. Dose–response curves of all four inhibitors against the three cell lines show the moderate sensitivity of all cell line toward these inhibitors (Figure 6).

[2] = system: HepG2 (human epithelial liver cancer) cell line; assay: MTT cytotoxicity assay; format: cell-based; conditions: after 48 h of treatment, mean ± S.D
Excerpt: as §1, §2, §3

[3] = system: Vero (monkey epithelial kidney) cell line; assay: MTT cytotoxicity assay; format: cell-based; conditions: after 48 h of treatment, mean ± S.D
Excerpt: as §1, §2, §3

[4] = system: EGFR, VEGFR, RET, Tie-2, FGFR1; conditions: FDA-approved kinase inhibitor, against tested cell lines, no reference given; cited from earlier work
PDGFR, VEGFR = conditions: FDA-approved kinase inhibitor, against tested cell lines, no reference given; cited from earlier work
[5] = system: BCR-ABL, KIT, LCK, EPHA3, 8, DDR1, 2; conditions: FDA-approved kinase inhibitor, against tested cell lines, no reference given; cited from earlier work
[6] = system: TIE2, PDGFR, RET, KIT, B-RAF; conditions: FDA-approved kinase inhibitor, against tested cell lines, no reference given; cited from earlier work
[7] = system: BCR-ABL, SRC, KIT, PDGFR, EPH, CSK; conditions: FDA-approved kinase inhibitor, against tested cell lines, no reference given; cited from earlier work
[8] = system: VEGF, RET, MET, NTRKB, TIE2, AXL; conditions: FDA-approved kinase inhibitor, against tested cell lines, no reference given; cited from earlier work
cannabinoid CB1 receptor = molecular target: cannabinoid CB1 receptor; set-up: method as in PMID 17027269; conditions: cited from earlier work

`O=S(=O)(c1cccc(NCc2cccc3ccccc23)c1)N1CCOCC1` [Compound Z21] gave an IC50 [1] of 231 ± 2.35 µM, an IC50 [2] of 246 ± 1.93 µM and an IC50 [3] of 250.2 ± 2.34 µM.

`Cc1ccc(NC(=O)Cn2cnc3sc(-c4nc(-c5ccccc5)no4)c(C)c3c2=O)cc1Cl` [Compound F34] gave an IC50 [1] of 145 ± 2.06 µM, an IC50 [2] of 175.5 ± 1.66 µM and an IC50 [3] of 131 ± 2.3 µM.

For `N.N.[Cl][Pt][Cl]` [Cisplatin, cisplatin, reference compound], the IC50 [1] was 6.02 ± 1.59 µM, the IC50 [2] was 6.41 ± 1.54 µM and the IC50 [3] was 7.99 ± 2.38 µM.

For `Cc1nc(Nc2ncc(C(=O)Nc3c(C)cccc3Cl)s2)cc(N2CCN(CCO)CC2)n1` [dasatinib], the IC50 [7] is listed as under 0.01 µM.

For `COc1cc2nccc(Oc3ccc(NC(=O)C4(C(=O)Nc5ccc(F)cc5)CC4)cc3)c2cc1OC` [cabozantinib], the IC50 [8] is listed as under 0.015 µM.

In the case of `COc1ccc(C(=O)Oc2ccc3c(=O)c(Oc4ccc5ccccc5c4)coc3c2)cc1` [AF3], the IC50 [1] is reported as 176 ± 2.12 µM, the IC50 [2] is reported as 188 ± 2.31 µM and the IC50 [3] is reported as 209 ± 2.43 µM.

For `O=C(Nc1ccc(Cl)c(S(=O)(=O)N2CCOCC2)c1)c1cccc2ccccc12` [N-(4-chloro-3-(morpholinosulfonyl)phenyl)-1-naphthamide], the IC50 (cannabinoid CB1 receptor) is given as “nanomolar range”.

Work on `O=C(CCn1[nH]c(=O)c2ccccc2c1=O)N1CCCC1c1ccc2c(c1)OCCO2` (stereo not shown) [Compound Z88] yielded an IC50 [1] of 218.7 ± 2.04 µM, an IC50 [2] of 222.1 ± 1.68 µM and an IC50 [3] of 204.8 ± 1.78 µM.
